Laboratory results reported in patent US20230113037A1 (Bayer Aktiengesellschaft, priority 2019, published 2023).
Where “and” joins values, the source holds several entries; their conditions need not be identical. Identical values can stand only once. Like-named read-outs stand apart in the source and are kept apart here.

What was measured:
AHR [1] = target: T1, AHR (Homo sapiens, UniProt P35869); assay: In vitro assay 1: antagonism in human cell line (AHR transactivation, firefly luciferase reporter, kynurenic acid prestimulated); assay type: cell-based; settings: AHR Antagonism Human IC50 [M]
T1 construct: U87 MG glioblastoma cells (ATCC #HTB-14) endogenously expressing AHR; endogenous in cells; host or cells: U87 MG glioblastoma cells (ATCC #HTB-14)
T1 sequence (P35869 11-848): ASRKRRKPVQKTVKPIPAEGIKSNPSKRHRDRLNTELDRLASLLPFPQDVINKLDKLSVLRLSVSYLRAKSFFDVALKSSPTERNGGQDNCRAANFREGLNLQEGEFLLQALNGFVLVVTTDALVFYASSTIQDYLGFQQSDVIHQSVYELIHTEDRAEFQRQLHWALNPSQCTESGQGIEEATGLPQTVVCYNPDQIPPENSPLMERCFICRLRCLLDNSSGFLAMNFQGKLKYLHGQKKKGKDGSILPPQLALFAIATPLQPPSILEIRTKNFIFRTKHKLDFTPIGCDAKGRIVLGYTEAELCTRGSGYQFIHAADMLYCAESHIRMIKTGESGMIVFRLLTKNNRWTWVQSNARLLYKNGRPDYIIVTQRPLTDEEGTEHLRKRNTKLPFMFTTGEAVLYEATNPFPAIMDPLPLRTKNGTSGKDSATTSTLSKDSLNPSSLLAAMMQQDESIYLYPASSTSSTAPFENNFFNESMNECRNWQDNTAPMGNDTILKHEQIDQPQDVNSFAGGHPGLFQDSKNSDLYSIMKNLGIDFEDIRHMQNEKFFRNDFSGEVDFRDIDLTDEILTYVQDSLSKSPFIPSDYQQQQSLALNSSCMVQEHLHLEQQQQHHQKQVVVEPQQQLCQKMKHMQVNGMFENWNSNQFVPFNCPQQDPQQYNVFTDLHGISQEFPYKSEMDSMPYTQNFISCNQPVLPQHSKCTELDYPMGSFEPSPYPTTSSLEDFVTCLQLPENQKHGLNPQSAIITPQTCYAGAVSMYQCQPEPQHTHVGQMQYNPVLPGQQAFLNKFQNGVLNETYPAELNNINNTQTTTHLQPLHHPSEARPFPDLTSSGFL
Method in brief: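 Antagonism is measured against kynurenic acid prestimulation in U87 MG glioblastoma cells carrying stable DRE-luciferase and Renilla reporters. Positive inhibition control: 150 μM kynurenic acid with 5 μM staurosporine. Values are normalized to controls; repeats are averaged or given as medians.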

AHR [2] = target: T2, AHR (Mus musculus, UniProt P30561); assay: In vitro assay 3: antagonism in mouse cell line (AHR transactivation, firefly luciferase reporter, kynurenic acid prestimulated); assay type: cell-based
T2 sequence (P30561 1-848 P471L/N533S/M589L): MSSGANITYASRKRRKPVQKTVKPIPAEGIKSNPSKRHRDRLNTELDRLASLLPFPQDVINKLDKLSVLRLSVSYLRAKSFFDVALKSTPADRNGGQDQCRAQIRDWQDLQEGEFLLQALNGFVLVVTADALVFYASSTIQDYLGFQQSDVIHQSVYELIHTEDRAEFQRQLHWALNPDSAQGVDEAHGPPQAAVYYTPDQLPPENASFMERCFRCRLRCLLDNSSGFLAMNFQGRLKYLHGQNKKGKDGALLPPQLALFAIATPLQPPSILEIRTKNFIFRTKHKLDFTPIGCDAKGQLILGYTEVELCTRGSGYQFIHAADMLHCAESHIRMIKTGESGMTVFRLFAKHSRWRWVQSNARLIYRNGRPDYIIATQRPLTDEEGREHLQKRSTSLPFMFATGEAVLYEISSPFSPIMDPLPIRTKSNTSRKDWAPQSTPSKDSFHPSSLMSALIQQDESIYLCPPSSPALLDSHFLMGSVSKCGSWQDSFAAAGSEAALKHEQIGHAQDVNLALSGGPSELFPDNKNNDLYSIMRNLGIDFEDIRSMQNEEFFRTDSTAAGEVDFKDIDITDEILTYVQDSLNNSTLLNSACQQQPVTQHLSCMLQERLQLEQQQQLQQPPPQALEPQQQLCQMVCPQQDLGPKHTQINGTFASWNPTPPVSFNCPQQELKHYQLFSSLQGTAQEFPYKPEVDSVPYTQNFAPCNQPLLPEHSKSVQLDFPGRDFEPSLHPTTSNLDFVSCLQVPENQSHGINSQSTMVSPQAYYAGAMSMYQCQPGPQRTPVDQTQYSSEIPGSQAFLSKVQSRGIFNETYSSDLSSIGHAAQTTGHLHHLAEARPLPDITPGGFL
Method in brief: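 Luminescence from an AHR-dependent DRE-luciferase reporter, stably integrated in mouse cells, quantifies blockade of kynurenic acid-driven activation. Unstimulated cells mark maximal inhibition; normalization uses both control types, and multiply tested compounds carry mean or median values.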

[3] = mouse Hepa 1c1c7 cells, 200 μM kynurenic acid, 20 hours, read-out: AHR Antagonism Mouse IC50
[4] = read-out: AHR Antagonism Mouse IC50, mouse Hepa 1c1c7 cells, 200 μM kynurenic acid, 20 hours

| SMILES | IC50 (AHR [1]) | IC50 (AHR [2]; [3]) | IC50 (AHR [2]; [4]) |
| --- | --- | --- | --- |
| Cc1ncc(-c2nc3c4ccccc4nc(N[C@@H]4CCCCNC4=O)n3n2)cc1F [Example 641, (3R)-3-{[2-(5-fluoro-6-methylpyridin-3-yl)[1,2,4]triazolo[1,5-c]quinazolin-5-yl]amino}azepan-2-one] | 6.85e-09 M | 2.46 nM |  |
| O=C1NCCCC[C@H]1Nc1nc2ccccc2c2nc(-c3cncnc3)nn12 [Example 642, (3R)-3-{[2-(pyrimidin-5-yl)[1,2,4]triazolo[1,5-c]quinazolin-5-yl]amino}azepan-2-one] | 3.34e-07 M | 683 nM |  |
| O=C1NCCCC[C@H]1Nc1nc2ccccc2c2nc(-c3cccnn3)nn12 [Example 644, (3R)-3-{[2-(pyridazin-3-yl)[1,2,4]triazolo[1,5-c]quinazolin-5-yl]amino}azepan-2-one] | 1.03e-07 M | 61.7 nM |  |
| O=C1NCCCC[C@H]1Nc1nc2ccccc2c2nc(-c3cnsc3)nn12 [Example 645, (3R)-3-{[2-(1,2-thiazol-4-yl)[1,2,4]triazolo[1,5-c]quinazolin-5-yl]amino}azepan-2-one] | 1.66e-08 M | 6.64 nM |  |
| O=C1NCCCC[C@H]1Nc1nc2ccccc2c2nc(-c3cnn(C4CCNCC4)c3)nn12 [Example 646, (3R)-3-({2-[1-(piperidin-4-yl)-1H-pyrazol-4-yl][1,2,4]triazolo[1,5-c]quinazolin-5-yl}amino)azepan-2-one] | 2.89e-06 M | > 20000 nM and 11800 nM |  |
| COc1ccc(-c2nc3c4c(C5CNC5)cccc4nc(N[C@@H]4CCCCNC4=O)n3n2)cc1 [Example 647, (3R)-3-{[10-(azetidin-3-yl)-2-(4-methoxyphenyl)[1,2,4]triazolo[1,5-c]quinazolin-5-yl]amino}azepan-2-one] | 6.34e-06 M | > 20000 nM and 12800 nM |  |
| CS(=O)(=O)c1ccccc1-c1nc2c3ccccc3nc(N[C@@H]3CCCCNC3=O)n2n1 [Example 649, (3R)-3-({2-[2-(methanesulfonyl)phenyl][1,2,4]triazolo[1,5-c]quinazolin-5-yl}amino)azepan-2-one] | 3.8e-07 M | 27.3 nM |  |
| CS(=N)(=O)c1ccccc1-c1nc2c3ccccc3nc(N[C@@H]3CCCCNC3=O)n2n1 (stereo partly drawn) [Example 650, (3R)-3-({2-[2-(S-methylsulfonimidoyl)phenyl][1,2,4]triazolo[1,5-c]quinazolin-5-yl}amino)azepan-2-one] | 1.1e-07 M |  | 67.1 nM |
| COc1ccc(-c2nc3c4cccc(C(=O)OC(C)C)c4nc(N[C@@H]4CCCCNC4=O)n3n2)cc1 [Example 653, propan-2-yl 2-(4-methoxyphenyl)-5-{[(3R)-2-oxoazepan-3-yl]amino}[1,2,4]triazolo[1,5-c]quinazoline-7-carboxylate] | 2.58e-07 M | > 20000 nM |  |
| COc1ccc(-c2nc3c4cccc(N5CCOCC5)c4nc(N[C@@H]4CCCCNC4=O)n3n2)cc1 [Example 654, (3R)-3-{[2-(4-methoxyphenyl)-7-(morpholin-4-yl)[1,2,4]triazolo[1,5-c]quinazolin-5-yl]amino}azepan-2-one] | 1.03e-07 M | 221 nM |  |
| COc1ccc(-c2nc3c4c(N5CCOCC5)cccc4nc(N[C@@H]4CCCCNC4=O)n3n2)cc1 [Example 655, (3R)-3-{[2-(4-methoxyphenyl)-10-(morpholin-4-yl)[1,2,4]triazolo[1,5-c]quinazolin-5-yl]amino}azepan-2-one] | 1.39e-07 M | 256 nM |  |
| CCOC(=O)[C@@H](C)Nc1nc2ccccc2c2nc(-c3ccc(OC)cc3)nn12 [Example 657, ethyl N-[2-(4-methoxyphenyl)[1,2,4]triazolo[1,5-c]quinazolin-5-yl]-D-alaninate] | 1.4e-08 M | 82.1 nM |  |
| COc1ccc(-c2nc3c4ccccc4nc(N[C@H](C)C(=O)NC4CCCCC4)n3n2)cc1 [Example 665, N-cyclohexyl-N2-[2-(4-methoxyphenyl)[1,2,4]triazolo[1,5-c]quinazolin-5-yl]-D-alaninamide] | 1.87e-08 M |  | 11.3 nM |
| CCOc1cccc2c1nc(N[C@@H]1CCCCNC1=O)n1nc(-c3ccc(OC)cc3)nc21 [Example 667, (3R)-3-{[7-ethoxy-2-(4-methoxyphenyl)[1,2,4]triazolo[1,5-c]quinazolin-5-yl]amino}azepan-2-one] | 2.68e-09 M | 4.56 nM |  |
| COc1ccc(-c2nc3c4cccc(OCC(C)(F)F)c4nc(N[C@@H]4CCCCNC4=O)n3n2)cc1 [Example 668, (3R)-3-{[7-(2,2-difluoropropoxy)-2-(4-methoxyphenyl)[1,2,4]triazolo[1,5-c]quinazolin-5-yl]amino}azepan-2-one] | > 5.71e-06 M | 271 nM |  |
| COc1ccc(-c2nc3c4cccc(O)c4nc(N[C@@H]4CCCCNC4=O)n3n2)cc1 [Example 669, (3R)-3-{[7-hydroxy-2-(4-methoxyphenyl)[1,2,4]triazolo[1,5-c]quinazolin-5-yl]amino}azepan-2-one] | 1.99e-09 M |  | 4.96 nM |
| COc1ccc(-c2nc3c4cccc(OCCC(F)(F)F)c4nc(N[C@@H]4CCCCNC4=O)n3n2)cc1 [Example 670, (3R)-3-{[2-(4-methoxyphenyl)-7-(3,3,3-trifluoropropoxy)[1,2,4]triazolo[1,5-c]quinazolin-5-yl]amino}azepan-2-one] | 2.78e-07 M | 160 nM |  |
| O=C1NCCCC[C@H]1Nc1nc2c(C(F)(F)F)cccc2c2nc(-c3ccc(Cl)cc3OC(F)F)nn12 [Example 673, (3R)-3-({2-[4-chloro-2-(difluoromethoxy)phenyl]-7-(trifluoromethyl)[1,2,4]triazolo[1,5-c]quinazolin-5-yl}amino)azepan-2-one] | > 2e-05 M | 1.57 nM |  |
| CCn1cc(-c2nc3c4cccc(C(F)(F)F)c4nc(N[C@@H]4CCCCNC4=O)n3n2)c(C)n1 [Example 674, (3R)-3-{[2-(1-ethyl-3-methyl-1H-pyrazol-4-yl)-7-(trifluoromethyl)[1,2,4]triazolo[1,5-c]quinazolin-5-yl]amino}azepan-2-one] | 3.44e-10 M | 0.669 nM |  |
| CCn1cc(-c2nc3c4cccc(C(F)(F)F)c4nc(N[C@@H]4CCCCNC4=O)n3n2)cn1 [Example 675, (3R)-3-{[2-(1-ethyl-1H-pyrazol-4-yl)-7-(trifluoromethyl)[1,2,4]triazolo[1,5-c]quinazolin-5-yl]amino}azepan-2-one] | 1.22e-09 M | 2.26 nM |  |
| O=C1NCCCC[C@H]1Nc1nc2c(C(F)(F)F)cccc2c2nc(-c3cnn(C4CC4)c3)nn12 [Example 676, (3R)-3-{[2-(1-cyclopropyl-1H-pyrazol-4-yl)-7-(trifluoromethyl)[1,2,4]triazolo[1,5-c]quinazolin-5-yl]amino}azepan-2-one] | 6.18e-10 M | 1.97 nM |  |
| O=C1NCCCC[C@H]1Nc1nc2c(C(F)(F)F)cccc2c2nc(-c3cn[nH]c3)nn12 [Example 677, (3R)-3-{[2-(1H-pyrazol-4-yl)-7-(trifluoromethyl)[1,2,4]triazolo[1,5-c]quinazolin-5-yl]amino}azepan-2-one] | 1.33e-08 M | 53.1 nM |  |
